Each compound was assayed on Radical scavenging activity (assay: Antioxidant activity in unilamellar DOPC liposomes).
Assay type: functional, subcellular, Liposome

| Log IC50 | Structure (SMILES) |
| --- | --- |
| -5.48 | COc1c(C)cc2c(c1C)[C@@H]1CN(C(=O)OCc3ccccc3)CC[C@@H]1N2 (racemic) |
| -5.36 | Cc1cc(C)c2c(c1)[C@@H]1CN(C(=O)OCc3ccccc3)CC[C@@H]1N2 (racemic) |
| -5.19 | COc1c(C)cc2c(c1C)[C@@H]1CN(C(=O)OCC(C)C)CC[C@@H]1N2 (racemic) |
| -5.35 | CCCCOC(=O)N1CC[C@@H]2Nc3cc(C)c(OC)c(C)c3[C@@H]2C1 (racemic) |
| -4.7 | CCOC(=O)N1CC[C@@H]2Nc3cc(C)c(OC)c(C)c3[C@@H]2C1 (racemic) |
| -5.49 | COc1ccc2c(c1)[C@@H]1CN(C(=O)OCc3ccccc3)CC[C@@H]1N2 (racemic) |
| -5.12 | COc1ccc2c(c1)[C@@H]1CN(C(=O)OC(C)(C)C)CC[C@@H]1N2 (racemic) |

More lines, now with the values behind:

| Structure (SMILES) | Log IC50 |
| --- | --- |
| Cc1cc(Br)c2c(c1)[C@@H]1CN(C)CC[C@@H]1N2 (racemic) | -4.8 |
| Cc1ccc2c(c1)[C@H]1CN(C)CC[C@H]1N2 [STOBADINE] | -4.6 |
| Cc1cc2c(c(N(C)C)c1)N[C@H]1CCN(C)C[C@@H]21 (racemic) | -4.66 |
| Cc1cc(N)c2c(c1)[C@@H]1CN(C)CC[C@@H]1N2 (racemic) | -4.9 |
| COc1cc(C)c2c(c1)[C@@H]1CN(C(=O)OCc3ccccc3)CC[C@@H]1N2 (racemic) | -5.29 |
| COC(=O)N1CC[C@@H]2Nc3c(Br)c(C)c(OC)c(C)c3[C@@H]2C1 (racemic) | -4.71 |
| COc1ccc2c(c1)[C@H]1CN(C)CC[C@H]1N2 | -4.48 |
| CN1CC[C@@H]2Nc3ccc(O)cc3[C@@H]2C1 (racemic) | -4.68 |
| COC(=O)N1CC[C@@H]2Nc3cc(C)c(OC)c(C)c3[C@@H]2C1 (racemic) | -4.71 |
| CCCOC(=O)N1CC[C@@H]2Nc3cc(C)c(OC)c(C)c3[C@@H]2C1 (racemic) | -5.16 |
| Cc1c(Br)cc2c(c1C)N[C@H]1CCN(C(=O)OCc3ccccc3)C[C@@H]21 (racemic) | -5.53 |
| Cc1cc2c(c([N+](=O)[O-])c1)N[C@H]1CCN(C)C[C@@H]21 (racemic) | -4.58 |

— ChEMBL document CHEMBL1146067, “Free radical scavenging and antioxidant activities of substituted hexahydropyridoindoles. Quantitative structure-activity relationships” (J Med Chem, 2006)
